From ChEMBL document CHEMBL1201862, “PubChem BioAssay data set” (2004)
Active and inactive are the calls of the source.

What was measured:
[1] = target: T1, Tyrosine-protein phosphatase non-receptor type 7 (Homo sapiens, UniProt P35236); test: HePTP tyrosine phosphatase activity blockers – biochemical, absorbance, leukemia target, primary screen (AID 521); assay type: functional
T1 sequence (P35236 whole entry): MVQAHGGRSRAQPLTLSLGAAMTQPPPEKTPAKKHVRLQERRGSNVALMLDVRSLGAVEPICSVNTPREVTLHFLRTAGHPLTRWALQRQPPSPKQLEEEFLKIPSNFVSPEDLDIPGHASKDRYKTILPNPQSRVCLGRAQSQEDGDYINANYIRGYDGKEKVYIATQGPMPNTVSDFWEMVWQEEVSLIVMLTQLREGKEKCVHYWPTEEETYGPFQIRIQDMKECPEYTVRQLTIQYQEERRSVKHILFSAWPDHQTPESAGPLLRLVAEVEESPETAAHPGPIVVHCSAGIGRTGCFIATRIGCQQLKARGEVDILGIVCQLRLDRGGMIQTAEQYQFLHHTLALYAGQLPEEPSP

[2] = Luminescence Cell-Based Dose Response to Identify Activators of Luciferase Translation or Activity in H4-C Neuroglioblastoma Cells. [Related pubchem assays: 1829 (Project Summary), 1814 (Primary HTS)]; assay type: functional
[3] = Luminescence Cell-Based Dose Response HTS to Identify Activators of Luciferase Translation or Activity in H4 […] Cells. [Related pubchem assays: 1829 (Project Summary), 1814 (Primary HTS)]; assay type: functional
[4] = Luminescence Cell-Based Dose Response to Identify Activators of 5'UTR Stem-Loop Driven Prion Protein mRNA Translation in H4-C Neuroglioblastoma Cells. [Related pubchem assays: 1829 (Project Summary), 1814 (Primary HTS)]; assay type: functional
H4 = test: Luminescence Cell-Based Dose Response HTS to Identify Activators of 5'UTR Stem-Loop Driven Prion Protein mRNA Translation in H4 Neuroglioblastoma Cells. [Related pubchem assays: 1829 (Project Summary), 1814 (Primary HTS)]; assay type: functional; details: Homo sapiens
[5] = Luminescence Cell-Based Dose Confirmation to Identify Activators of 5'UTR Stem-Loop Driven Alpha-Synuclein mRNA Translation in H4 Neuroglioblastoma Cells. [Related pubchem assays: 1829 (Project Summary), 1814 (Primary HTS)]; assay type: functional
[6] = target: Voltage-gated inwardly rectifying potassium channel KCNH2 (Homo sapiens, UniProt Q12809); test: concentration-dependent hERG rescue from blockers – cell-based, thallium flux, dose response (AID 2121); assay type: ADME
Voltage-gated inwardly rectifying potassium channel KCNH2, sequence (Q12809 whole entry): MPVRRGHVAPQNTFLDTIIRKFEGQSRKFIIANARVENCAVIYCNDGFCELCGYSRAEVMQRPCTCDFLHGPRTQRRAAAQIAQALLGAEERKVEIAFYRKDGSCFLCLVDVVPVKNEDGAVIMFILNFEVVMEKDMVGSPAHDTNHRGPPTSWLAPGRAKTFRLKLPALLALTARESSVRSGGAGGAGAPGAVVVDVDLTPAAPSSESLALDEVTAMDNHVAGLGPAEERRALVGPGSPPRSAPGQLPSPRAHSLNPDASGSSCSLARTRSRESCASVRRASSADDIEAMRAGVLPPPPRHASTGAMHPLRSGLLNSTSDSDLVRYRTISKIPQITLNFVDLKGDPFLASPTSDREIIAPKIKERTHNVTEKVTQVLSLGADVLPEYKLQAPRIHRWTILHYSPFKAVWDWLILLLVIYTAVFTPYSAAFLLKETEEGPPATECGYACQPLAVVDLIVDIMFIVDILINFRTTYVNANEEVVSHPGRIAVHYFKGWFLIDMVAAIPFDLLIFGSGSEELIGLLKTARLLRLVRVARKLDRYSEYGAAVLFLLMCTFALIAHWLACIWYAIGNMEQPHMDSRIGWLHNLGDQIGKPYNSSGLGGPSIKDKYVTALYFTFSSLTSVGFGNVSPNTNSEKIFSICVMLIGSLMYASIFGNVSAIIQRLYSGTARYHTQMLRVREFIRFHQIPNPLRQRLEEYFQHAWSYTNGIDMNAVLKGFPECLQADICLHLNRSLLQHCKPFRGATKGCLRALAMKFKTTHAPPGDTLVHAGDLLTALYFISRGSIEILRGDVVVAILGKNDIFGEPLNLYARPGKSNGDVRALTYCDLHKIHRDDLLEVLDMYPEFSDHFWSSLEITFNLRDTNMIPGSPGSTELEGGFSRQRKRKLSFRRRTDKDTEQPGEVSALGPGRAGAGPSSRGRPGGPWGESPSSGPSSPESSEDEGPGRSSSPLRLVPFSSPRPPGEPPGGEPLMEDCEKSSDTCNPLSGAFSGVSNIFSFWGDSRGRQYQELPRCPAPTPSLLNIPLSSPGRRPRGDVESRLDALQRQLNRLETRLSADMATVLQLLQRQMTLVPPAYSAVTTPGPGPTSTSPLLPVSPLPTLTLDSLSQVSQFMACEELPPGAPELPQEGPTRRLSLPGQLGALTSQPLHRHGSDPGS

[7] = target: Ubiquitin carboxyl-terminal hydrolase BAP1 (Homo sapiens, UniProt Q92560); test: inhibition of BAP1 ubiquitin hydrolase activity – biochemical, dose response (AID 714); assay type: functional
Ubiquitin carboxyl-terminal hydrolase BAP1, sequence (Q92560 whole entry): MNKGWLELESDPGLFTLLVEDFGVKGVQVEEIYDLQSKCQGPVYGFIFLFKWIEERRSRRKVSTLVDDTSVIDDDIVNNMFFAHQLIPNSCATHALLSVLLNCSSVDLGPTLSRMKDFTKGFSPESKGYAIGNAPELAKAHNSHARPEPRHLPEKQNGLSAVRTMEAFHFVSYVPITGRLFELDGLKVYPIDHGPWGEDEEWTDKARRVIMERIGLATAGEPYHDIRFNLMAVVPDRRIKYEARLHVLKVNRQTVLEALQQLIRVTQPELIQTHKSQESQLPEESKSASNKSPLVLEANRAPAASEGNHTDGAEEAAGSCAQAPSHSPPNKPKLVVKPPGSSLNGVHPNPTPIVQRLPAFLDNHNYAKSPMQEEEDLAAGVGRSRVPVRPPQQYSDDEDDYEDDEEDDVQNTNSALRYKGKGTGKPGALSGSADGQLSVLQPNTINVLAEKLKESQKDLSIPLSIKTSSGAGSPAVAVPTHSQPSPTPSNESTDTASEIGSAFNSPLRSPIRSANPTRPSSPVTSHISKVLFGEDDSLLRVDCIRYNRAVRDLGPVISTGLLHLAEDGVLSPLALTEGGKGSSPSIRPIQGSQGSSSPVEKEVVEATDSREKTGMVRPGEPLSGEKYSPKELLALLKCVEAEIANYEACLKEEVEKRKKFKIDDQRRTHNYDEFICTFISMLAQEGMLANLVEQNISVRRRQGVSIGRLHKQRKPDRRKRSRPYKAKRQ

[8] = target: Voltage-dependent T-type calcium channel subunit alpha-1H (Homo sapiens, UniProt O95180); assay type: functional;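 note: channel activity triggered by adding a high calcium stimulation buffer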
[9] = target: Lytic switch protein BZLF1 (Epstein-Barr virus (strain B95-8) (HHV-4) (Human herpesvirus 4), UniProt P03206); test: inhibition of BZLF1 ZTA DNA binding – biochemical, fluorescence polarization, Epstein-Barr virus, 1536-well, counter-screen for EBNA-1 inhibitor project, dose response (AID 2377); set-up: species or system human gammaherpesvirus 4;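 note: fluorescence polarization of Cy5-labelled ZRE DNA probe bound by purified Zta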
Lytic switch protein BZLF1, sequence (P03206 whole entry): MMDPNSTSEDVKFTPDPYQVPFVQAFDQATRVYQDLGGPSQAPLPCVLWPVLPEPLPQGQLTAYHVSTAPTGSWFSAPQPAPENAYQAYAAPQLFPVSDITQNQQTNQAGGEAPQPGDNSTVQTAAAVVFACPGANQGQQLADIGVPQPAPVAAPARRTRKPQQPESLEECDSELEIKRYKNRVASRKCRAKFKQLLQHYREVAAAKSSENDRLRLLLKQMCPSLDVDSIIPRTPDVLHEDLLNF

[10] = target: Epstein-Barr nuclear antigen 1 (Epstein-Barr virus (strain B95-8) (HHV-4) (Human herpesvirus 4), UniProt P03211); test: inhibition of EBV nuclear antigen 1 DNA binding – biochemical, fluorescence polarization, 1536-well, dose response (AID 2381); set-up: species or system human gammaherpesvirus 4;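 note: fluorescence polarization of a Cy5 DNA probe bound by EBNA-1 protein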
Epstein-Barr nuclear antigen 1, sequence (P03211 whole entry): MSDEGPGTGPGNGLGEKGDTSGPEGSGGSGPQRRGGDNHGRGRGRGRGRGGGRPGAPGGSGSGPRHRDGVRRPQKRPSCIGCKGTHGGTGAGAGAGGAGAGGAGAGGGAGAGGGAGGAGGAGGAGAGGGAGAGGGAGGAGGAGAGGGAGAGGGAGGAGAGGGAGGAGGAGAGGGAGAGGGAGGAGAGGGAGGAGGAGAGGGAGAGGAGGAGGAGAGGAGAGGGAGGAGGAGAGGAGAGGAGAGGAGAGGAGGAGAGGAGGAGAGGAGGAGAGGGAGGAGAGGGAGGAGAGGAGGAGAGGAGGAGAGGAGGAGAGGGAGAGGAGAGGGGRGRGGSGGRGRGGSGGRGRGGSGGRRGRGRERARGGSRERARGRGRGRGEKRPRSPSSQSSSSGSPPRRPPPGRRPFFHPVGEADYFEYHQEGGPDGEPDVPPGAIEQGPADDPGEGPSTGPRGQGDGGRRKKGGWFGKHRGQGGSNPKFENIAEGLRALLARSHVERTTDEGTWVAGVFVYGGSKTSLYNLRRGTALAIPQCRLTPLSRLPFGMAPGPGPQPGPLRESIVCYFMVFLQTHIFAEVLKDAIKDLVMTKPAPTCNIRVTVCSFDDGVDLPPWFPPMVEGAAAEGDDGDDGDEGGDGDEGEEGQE

Cytochrome P450 2C19 = Cytochrome P450 2C19 (Homo sapiens, UniProt P33261); test: Cytochrome panel assay with activity outcomes. Panel member name: p450-cyp2c19 Compounds with AC50 equal or less than 10 uM are considered active; assay type: functional; details: read-out: AC50
Cytochrome P450 2C19, sequence (P33261 whole entry): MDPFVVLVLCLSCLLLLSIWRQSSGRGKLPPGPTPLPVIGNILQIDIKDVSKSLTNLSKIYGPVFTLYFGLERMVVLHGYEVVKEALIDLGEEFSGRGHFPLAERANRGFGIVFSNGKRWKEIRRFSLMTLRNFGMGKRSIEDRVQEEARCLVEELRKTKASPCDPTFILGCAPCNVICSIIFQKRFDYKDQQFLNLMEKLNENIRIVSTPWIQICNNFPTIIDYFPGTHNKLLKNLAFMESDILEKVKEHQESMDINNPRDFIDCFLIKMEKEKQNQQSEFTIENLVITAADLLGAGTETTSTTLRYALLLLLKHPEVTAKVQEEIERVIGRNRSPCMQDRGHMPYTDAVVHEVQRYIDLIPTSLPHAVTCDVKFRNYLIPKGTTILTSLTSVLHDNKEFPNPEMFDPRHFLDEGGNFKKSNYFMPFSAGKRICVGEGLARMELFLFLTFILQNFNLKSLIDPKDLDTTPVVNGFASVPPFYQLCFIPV

Procathepsin L = Procathepsin L (Homo sapiens, UniProt P07711); test: CTSL1 protease inhibition – biochemical, QFRET, 1536-well, counter-screen for M1/M17 aminopeptidase inhibitor project, dose response (AID 2214)
Procathepsin L, sequence (P07711 whole entry): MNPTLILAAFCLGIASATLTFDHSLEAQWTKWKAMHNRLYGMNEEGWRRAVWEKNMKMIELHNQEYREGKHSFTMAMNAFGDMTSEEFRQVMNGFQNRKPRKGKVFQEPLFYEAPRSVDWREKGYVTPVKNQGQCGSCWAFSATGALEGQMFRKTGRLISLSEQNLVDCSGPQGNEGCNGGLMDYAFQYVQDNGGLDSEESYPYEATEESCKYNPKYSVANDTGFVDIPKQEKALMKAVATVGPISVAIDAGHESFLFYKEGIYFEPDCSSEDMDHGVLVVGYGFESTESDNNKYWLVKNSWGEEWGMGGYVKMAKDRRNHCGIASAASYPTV

Leucine aminopeptidase = target: T2, Leucine aminopeptidase (Plasmodium falciparum 3D7, UniProt Q8IL11); test: P. falciparum M17LAP inhibitors, primary screen, biochemical, fluorogenic H-Leu-NHMec substrate, 1536-well (AID 1619); assay type: functional
T2 sequence (Q8IL11 whole entry): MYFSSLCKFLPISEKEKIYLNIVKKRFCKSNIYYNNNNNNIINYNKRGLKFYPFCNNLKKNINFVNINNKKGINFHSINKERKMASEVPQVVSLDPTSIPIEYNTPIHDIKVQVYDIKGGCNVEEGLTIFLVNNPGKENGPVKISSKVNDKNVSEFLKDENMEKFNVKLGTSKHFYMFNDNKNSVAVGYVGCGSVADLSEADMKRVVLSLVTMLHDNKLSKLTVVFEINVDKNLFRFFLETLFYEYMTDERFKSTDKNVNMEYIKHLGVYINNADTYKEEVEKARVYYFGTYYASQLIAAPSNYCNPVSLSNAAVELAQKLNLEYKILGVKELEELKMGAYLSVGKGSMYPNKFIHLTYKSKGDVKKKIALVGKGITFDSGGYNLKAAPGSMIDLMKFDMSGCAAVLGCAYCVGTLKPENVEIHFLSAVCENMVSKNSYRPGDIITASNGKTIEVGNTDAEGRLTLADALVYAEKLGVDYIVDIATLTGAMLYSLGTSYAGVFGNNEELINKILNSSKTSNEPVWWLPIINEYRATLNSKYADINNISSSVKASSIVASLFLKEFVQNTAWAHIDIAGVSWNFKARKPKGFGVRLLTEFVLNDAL

Cytochrome P450 2C9 = Cytochrome P450 2C9 (Homo sapiens, UniProt P11712)
Cytochrome P450 2C9, sequence (P11712 whole entry): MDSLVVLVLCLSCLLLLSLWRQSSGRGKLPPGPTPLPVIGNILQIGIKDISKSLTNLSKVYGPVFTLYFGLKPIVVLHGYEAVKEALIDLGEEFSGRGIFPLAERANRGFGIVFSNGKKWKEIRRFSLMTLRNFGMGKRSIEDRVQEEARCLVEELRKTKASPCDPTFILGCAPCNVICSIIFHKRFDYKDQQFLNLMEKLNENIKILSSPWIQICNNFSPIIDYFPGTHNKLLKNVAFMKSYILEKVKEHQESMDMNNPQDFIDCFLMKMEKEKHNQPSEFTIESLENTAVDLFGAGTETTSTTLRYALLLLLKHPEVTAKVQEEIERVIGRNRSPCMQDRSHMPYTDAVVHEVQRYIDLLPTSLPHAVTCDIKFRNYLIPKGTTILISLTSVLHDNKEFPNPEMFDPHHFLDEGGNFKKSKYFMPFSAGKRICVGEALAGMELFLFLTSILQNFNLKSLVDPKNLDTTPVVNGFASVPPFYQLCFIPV

Aspartyl aminopeptidase = Aspartyl aminopeptidase (Plasmodium falciparum 3D7, UniProt Q8I2J3); test: Counterscreen for inhibitors of M1 and M17 aminopeptidases: QFRET-based biochemical high throughput dose response assay for inhibitors of the Plasmodium falciparum M18 Aspartyl Aminopeptidase (PFM18AAP). [Related PubChem assays: 1619 (Screening assay (M17LAP inhibitors).), 1445 (Screening assay (M1AAP inhibitors).)]
Aspartyl aminopeptidase, sequence (Q8I2J3 whole entry): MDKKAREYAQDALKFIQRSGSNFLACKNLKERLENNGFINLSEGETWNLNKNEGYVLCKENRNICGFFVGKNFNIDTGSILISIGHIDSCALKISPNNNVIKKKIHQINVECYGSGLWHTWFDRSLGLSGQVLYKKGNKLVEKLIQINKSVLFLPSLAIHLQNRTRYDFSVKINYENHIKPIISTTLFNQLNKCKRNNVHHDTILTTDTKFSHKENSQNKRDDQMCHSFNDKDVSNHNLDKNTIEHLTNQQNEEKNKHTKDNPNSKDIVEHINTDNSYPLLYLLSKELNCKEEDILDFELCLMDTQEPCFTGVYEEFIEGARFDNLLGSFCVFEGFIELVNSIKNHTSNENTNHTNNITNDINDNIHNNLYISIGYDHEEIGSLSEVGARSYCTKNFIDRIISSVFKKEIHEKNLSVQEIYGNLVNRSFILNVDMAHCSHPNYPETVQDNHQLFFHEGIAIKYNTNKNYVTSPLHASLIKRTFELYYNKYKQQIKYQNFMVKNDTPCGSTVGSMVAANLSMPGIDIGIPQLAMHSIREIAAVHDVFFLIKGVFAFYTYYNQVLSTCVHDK

## Cc1nc2c(o1)CCc1ccccc1C2O (stereo unspecified)
[1]
  IC50: > 100 µM (not active)

## Cc1ccsc1C1NC(=O)c2c(sc3c2CCCC3)N1 (stereo unspecified)
[2]
  EC50: 0.643 µM (active)
[3]
  EC50: < 0.1 µM (inconclusive)
[4]
  EC50: 1.12 µM (active)
H4
  EC50: 48.3 µM (active)
[5]
  EC50: 0.571 µM (active)

## CCc1ccc2nc(NC(=O)c3cc(C)on3)sc2c1
[6]
  EC50: 11.6 µM (active)

## CC(=O)N1CCN(c2ccccc2NC(=O)COc2cc(C)ccc2C(C)C)CC1
[7]
  IC50: 36.7 µM (not active)
[8]
  EC50: 3.67 µM (active)

## Cc1ccc(NC(=O)CSc2ccc(-c3ccccn3)nn2)cc1F
[9]
  IC50: > 111 µM (not active)
[10]
  IC50: > 16.4 µM (not active)

## CCOC(=O)c1c(-c2ccc(C)cc2)csc1NC(=O)C1CC=CCC1C(=O)O (stereo unspecified)
Cytochrome P450 2C19
  AC50: 28.2 µM (inconclusive)
Procathepsin L
  IC50: > 59.6 µM (not active)
Leucine aminopeptidase
  IC50: 4.8 µM (active)
Cytochrome P450 2C9
  AC50: 25.1 µM (inconclusive)
Aspartyl aminopeptidase
  IC50: > 73.5 µM (not active)
